Reference: patent US5100663A, “Tyr-Gly compositions useful in increasing immune response” (priority 1990, dated 1992)
Where two headings read alike, the source gives them in different places. Non-standard residues stand in square brackets, D forms with d. Residues, ends and D or L forms follow the SMILES beside them.

How the values were obtained:
[1] = test system: cell-mediated immune system response; test: Amplifier (immunological) activity of HPLC fractions and their constituents; design: species or system human; settings: for amplifier / immunological activity: HPLC fractions of human leukocyte dialysate and constituents; for immunological activity as assayed by DH test: moieties in effluents of Example 5 process
From the text: Absorbance was monitored at […], 0.1 Absorbance Units=Full Scale. […] The first peak was lower than the second and third, in terms of absorbance units, and is believed to be an artifact of the system associated with the ethanol solvent or due to elution of salts. The second and third peaks varied in relative height from preparation to preparation.
Other moieties found present in effluents of this process were Gly-Gly, Ser-Phe, and Ala, along with possibly other amino acid residues as well.

[2] = test system: L1210 leukemia cells in BDF1 strain mice; test: Mouse L1210 leukemia survival test; assay type: in vivo; settings: 2 fg intradermally every third day (about 100 fg/kg); 5 mice per group; present-tense example
Protocol: Ten BDF1 strain mice are divided into two groups of 5. Each mouse is injected with 100 L1210 leukemia cells from ascitic fluid of DBA/2 host mice.
(§1) The mice in Group I (control) are thereafter given injections of 0.1 ml sterile saline every third day. The mice in Group II are thereafter given intradermal injections of 2 fg of synthetic YG of Example 20 in 0.1 ml of sterile saline, every third day. The mice weigh approximately 20 g each, so that 2 fg represents approximately 100 fg/kg of bodyweight.
as §1, with “synthetic Tyr-D-Ala-Gly” for “synthetic YG”, “Example 25” for “Example 20”, “mice were” for “mice weigh”

[3] = test system: DH response to tetanus toxoid (TT); design: species or system human; settings: in vivo
[4] = test system: IL-2 receptors on T-helper cells; test: T-helper cell IL-2 receptor expression assay; assay type: cell-based, human
[5] = test system: gamma-interferon production in normal cells; test: Antigen-induced production of gamma interferon; assay type: cell-based, human
From the text: The LIF assay is described in Gottlieb et al., Modulation of Human T Cell Production, J. Immunology 132: 256-260 (Jan. 1984), at p. 257. Protocols for the other assays are believed to be known to those skilled in this art. A convenient reference for the gamma-interferon assay in Sinha et al., Bio/Technology 6:810 (1988), at pp. 814-15.
Preparations of 0.1 Lf /ml and 1.0 Lf /ml TT were used to determine the effect of Beta-1.11 (endogenous YG-material) on production of gamma-interferon in normal cells. As before, serial dilutions of Beta-1.11 were prepared from 46.5 pM to 91 fM.

Compound: N[C@@H](Cc1ccccc1)C(=O)O [phenylalanine]
- amplifier / immunological activity [1]: found to lack intrinsic amplifier activity

Compound: Gly-Gly
- amplifier / immunological activity [1]: found to lack intrinsic amplifier activity
- immunological activity as assayed by DH test [1]: None of these other moieties appeared to possess immunological activity

Compound: N[C@@H](Cc1ccc(O)cc1)C(=O)NCC(=O)O [synthetic YG, L-tyrosylglycine]
- mean survival longer than control group [2]: approximately 2.4 days
- potency relative to corresponding endogenous amplifier materials Beta-1.11 and Beta-1.12 [3]: an order of magnitude less potent
- increase of IL-2 receptors (high density maximum), factor [4]: approximately 1.6
- concentration giving the highest figure for high density of receptors ([4]; TT + serial dilutions): approximately 22 fM

Compound: Tyr-Gly-Gly-Phe-Ile (YGGFI; printed: Tyr-Gly-Gly-Phe-Ile)
- immunological activity in DH assay [3]: Significant immunological activity is not observed
- molar concentration giving activity comparable to YG, relative to YG in Example 21 [3]: 8-10 orders of magnitude

Compound: C[C@H](N)C(=O)O [Ala]
- immunological activity as assayed by DH test [1]: None of these other moieties appeared to possess immunological activity

Compound: N[C@@H](Cc1ccc(O)cc1)C(=O)NCC(=O)NCC(=O)O [YGG, L-tyrosylglycylglycine] (H-Tyr-Gly-Gly-OH)
- potency relative to corresponding endogenous amplifier materials Beta-1.11 and Beta-1.12 [3]: an order of magnitude less potent

Compound: C[C@@H](NC(=O)[C@@H](N)Cc1ccc(O)cc1)C(=O)NCC(=O)O [Tyr-D-Ala-Gly, L-tyrosyl-D-alanyl-L-glycine] (H-Tyr-[dA]-Gly-OH)
- mean survival longer than control group [2]: approximately 2.8 days
- amplifier effect in DH assay [3]: slightly better than that observed in Table 1 of Gottlieb U.S. Pat. No. 4,699,898
- skin reaction without TT [3]: No reaction is observed
- concentration giving the highest figure for high density of receptors [4]: approximately 2 fM
- effect relative to endogenous material [4]: approximately an order of magnitude less in effect than endogenous YGG-material
- increase of IL-2 receptors (high density maximum), factor [4]: approximately 1.5
- concentration at maximum gamma-interferon production ([5]; 1.0 Lf/ml TT): approximately 20 fM
- potency relative to endogenous YG-material ([5]; gamma interferon assay, human sources not identical): an order of magnitude more potent
